Measured values taken from US6855730B2, “3-methylidenyl-2-indolinone modulators of protein kinase” (Sugen, Inc., priority 1998, dated 2005).

What was measured:
flkGST = biological target: T1, flkGST (Homo sapiens, UniProt P35968); test: bio flkGST assay; assay type: biochemical
T1 construct: GST

[1] = biological target: Myc-GyrB-FGFR fusion protein (Homo sapiens, UniProt P11362); test: Biochemical FGFR assay (ELISA); conditions: read-out: bio fgfR1 IC50
Method: This assay measures in vitro kinase activity of the Myc-GyrB-FGFR fusion protein using ELISA.
Materials and Reagents • 1. HNTG
PBS (Dulbecco's Phosphate-Buffered Saline, Gibco Catalog # 450-1300EB). • 3. Blocking Buffer. • 4. Kinase Buffer.
Working solution: 100 mM in ethanol. • 6.
ABTS Solution. • 10. Hydrogen peroxide 30% solution ( Fisher Catalog # H325). • 11. ABTS/H2O2. • 12. 0.2 M HCl. • 13.
Prepare 1.0 mM solution in MilliQ H2O, adjust pH to 7.2 with HCl. • 14.
Prepare 5 M solution in MilliQ H2O. • 15. MgCl, (Fisher Cat. No. M33-500).
Prepare 1 M solution in MilliQ H2O. • 16. HEPES (Fisher Cat. No. BP310-500).
Prepare 1 M solution in MilliQ H2O, adjust pH to 7.5, sterile filter. • 17. TBST Buffer. • 18. Sodium Carbonate Buffer (Fisher Cat. No. S495).
Prepare 0.1 M solution in MilliQ H2O, adjust pH to 9.6 with NaOH, filter. • 19. Dithiothreitol (DTT, Fisher Cat. No. BP172-25).
Prepare 0.5 mM working solution in MilliQ H2O just prior to-use. Store at −20° C. until used, discard any leftover. • 20. MnCl2. • 21. Triton X-100. • 22. Goat α-Rabbit IgG (Cappel). • 23. Affinity purified Rabbit α GST GyrB (Biochemistry Lab. SUGEN, Inc.).
All of the following steps are conducted at room temperature unless otherwise indicated. • 1. Coat Corning 96-well ELISA plates with 2 μg Goat α-Rabbit antibody per well in Carbonate Buffer such that total well volume is 100 μl. Store overnight at 40° C. • 2. Remove unbound Goat a-Rabbit antibody by inverting plate to remove liquid. Pat plate on a paper towel to remove excess liquid and bubbles • 3.. Add 150 μl Blocking Buffer (5% Low Fat Milk in PBS) to each well. Incubate while shaking on a micro-titer plate shaker for 30 min. • 4. Wash 4× with TBST. Pat plate on a paper towel to remove excess liquid and bubbles. • 5. Add 0.5 μg Rabbit α-GyrB antibody per well. Dilute antibody in DPBS to a final volume of 100 μl per well. Incubate with shaking on a micro-titer plate shaker at room temperature for 1 hour. • 6. Wash 4× with TBST as described in step 4. • 7. Add 2 μg COS/FGFR cell lysate (Myc-GyrB-FGFR source) in HNTG to each well to give a final volume of 100 μl per well. Incubate with shaking on a micro-titer plate shaker for 1 hour. • 8. Wash 4× with TBST as described in step 4. • 9. Add 80 μl of 1× kinase buffer per well. • 10. […] Transfer 10 μ l of diluted test compound solution and control wells from polypropylene plate wells to the corresponding ELISA plate wells, incubate with shaking on a micro-titer plate shaker for 20 minutes. • 12. Add 10 μl of 70 μM ATP diluted in kinase buffer to positive control and test wells (Final ATP concentration is 7 EM/well). Add 10 μl 1× kinase buffer to negative control wells. Incubate with shaking on a micro-titer plate shaker for 15 min. • 13. Stop kinase reaction by adding 5 μl 0.5 M EDTA to all wells. • 14. Wash 4× with TBST as described in step 4. • 15. Add 100 μl biotin conjugated α-phosphotyrosine mab (b4G10) diluted in TBST to each well. Incubate with shaking on a micro-titer plate shaker for 30 minutes. • 16. Prepare Vectastain ABC reagent. […] Mix by inverting tube several times. Add 1 drop reagent B and mix again. • 17. Wash 4× with TBST as described in step 4. • 18. Add 100 μl ABC HRP reagent to each well. Incubate with shaking on a micro-titer plate shaker for 30 minutes. • 19. Wash 4× with TBST as described in step 4. • 20. Add 100 μl of ABTS/H2O2 solution to each well. • 22. Incubate 5 to 15 minutes with shaking. Remove any bubbles. • 23. If necessary stop reaction by adding 1 00 μl of 0.2M HCl/well. • 24.

PDGFR-β = biological target: T2, PDGFR-β (Homo sapiens, UniProt P09619); test: Biochemical PDGFR assay (ELISA, PDGFR-β expressing NIH 3T3 cell lysate); conditions: read-out: bio PDGF IC50
T2 construct: host or cells: NIH 3T3
Outline: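 PDGFR-β from NIH 3T3 cell lysate captured on anti-PDGFR (28D4C10)-coated plates; compound preincubated 30 min, then 20 μM ATP kinase reaction 30 min at room temperature, stopped with EDTA. Phosphotyrosine detected by anti-phosphotyrosine antibody, peroxidase conjugate and ABTS/H2O2, read at 410 nm.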

pyk2 = pyk2 (Homo sapiens, UniProt Q14289); test: bio pyk2 assay; assay type: biochemical
EGFR = EGFR (Homo sapiens, UniProt P00533); test: Biochemical EGFR assay (ELISA, A431 cell lysate); set-up: A431 cell lysate (Screening Lab, SUGEN, Inc.); host or cells: A431; conditions: read-out: bio EGFr IC50
Outline: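 EGFR captured from A431 cell lysate onto anti-EGFR-coated plates, then incubated with test compound for 30 min at room temperature. Tyrosine phosphorylation with ATP/MnCl2 was stopped with EDTA after 5 min and detected by anti-phosphotyrosine ELISA with peroxidase/ABTS read-out.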

T1 sequence (P35968 786-1356 limits assumed): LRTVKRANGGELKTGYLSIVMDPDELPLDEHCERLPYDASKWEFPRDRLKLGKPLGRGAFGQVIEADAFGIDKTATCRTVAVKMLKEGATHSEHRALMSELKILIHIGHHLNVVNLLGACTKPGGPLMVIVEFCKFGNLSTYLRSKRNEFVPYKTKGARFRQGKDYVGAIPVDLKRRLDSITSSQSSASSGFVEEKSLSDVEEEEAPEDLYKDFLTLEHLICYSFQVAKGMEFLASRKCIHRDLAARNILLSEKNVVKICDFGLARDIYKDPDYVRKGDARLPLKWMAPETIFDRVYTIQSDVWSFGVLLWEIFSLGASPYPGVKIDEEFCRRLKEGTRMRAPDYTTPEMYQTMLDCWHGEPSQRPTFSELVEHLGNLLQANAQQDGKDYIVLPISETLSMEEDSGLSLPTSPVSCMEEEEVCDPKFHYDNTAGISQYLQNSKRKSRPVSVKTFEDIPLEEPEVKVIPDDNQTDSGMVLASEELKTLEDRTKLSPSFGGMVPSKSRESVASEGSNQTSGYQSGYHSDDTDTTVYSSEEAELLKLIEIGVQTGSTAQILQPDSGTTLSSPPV
T2 sequence (P09619 33-1106): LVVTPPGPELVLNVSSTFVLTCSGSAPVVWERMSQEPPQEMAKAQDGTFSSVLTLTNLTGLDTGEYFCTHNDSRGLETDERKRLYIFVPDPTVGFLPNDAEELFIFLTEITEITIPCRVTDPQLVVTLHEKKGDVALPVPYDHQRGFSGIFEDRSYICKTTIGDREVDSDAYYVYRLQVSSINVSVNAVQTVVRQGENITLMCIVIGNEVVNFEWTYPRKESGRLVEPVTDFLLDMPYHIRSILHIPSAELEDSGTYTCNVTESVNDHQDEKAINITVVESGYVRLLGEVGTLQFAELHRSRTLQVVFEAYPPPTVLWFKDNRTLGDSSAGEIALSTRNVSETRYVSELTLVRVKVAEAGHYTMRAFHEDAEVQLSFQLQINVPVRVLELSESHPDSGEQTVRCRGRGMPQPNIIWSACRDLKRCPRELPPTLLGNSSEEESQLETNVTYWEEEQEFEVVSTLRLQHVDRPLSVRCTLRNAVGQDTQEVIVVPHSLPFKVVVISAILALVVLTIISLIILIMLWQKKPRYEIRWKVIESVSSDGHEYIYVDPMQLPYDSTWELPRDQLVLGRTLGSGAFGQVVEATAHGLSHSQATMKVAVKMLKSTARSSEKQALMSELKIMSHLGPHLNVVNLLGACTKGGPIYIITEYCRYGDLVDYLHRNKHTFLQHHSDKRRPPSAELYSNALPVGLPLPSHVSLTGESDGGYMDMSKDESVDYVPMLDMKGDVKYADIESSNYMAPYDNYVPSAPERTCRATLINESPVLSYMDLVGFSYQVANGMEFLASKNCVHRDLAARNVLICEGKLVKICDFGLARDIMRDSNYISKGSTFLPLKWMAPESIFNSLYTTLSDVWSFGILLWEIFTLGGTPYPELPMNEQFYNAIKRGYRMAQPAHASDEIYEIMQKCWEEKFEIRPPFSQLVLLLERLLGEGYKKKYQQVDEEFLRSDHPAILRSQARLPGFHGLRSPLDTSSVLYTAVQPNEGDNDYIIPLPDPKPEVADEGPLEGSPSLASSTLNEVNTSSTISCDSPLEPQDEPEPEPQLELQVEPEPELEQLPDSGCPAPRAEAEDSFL
Myc-GyrB-FGFR fusion protein, sequence (P11362 478-767 limits assumed): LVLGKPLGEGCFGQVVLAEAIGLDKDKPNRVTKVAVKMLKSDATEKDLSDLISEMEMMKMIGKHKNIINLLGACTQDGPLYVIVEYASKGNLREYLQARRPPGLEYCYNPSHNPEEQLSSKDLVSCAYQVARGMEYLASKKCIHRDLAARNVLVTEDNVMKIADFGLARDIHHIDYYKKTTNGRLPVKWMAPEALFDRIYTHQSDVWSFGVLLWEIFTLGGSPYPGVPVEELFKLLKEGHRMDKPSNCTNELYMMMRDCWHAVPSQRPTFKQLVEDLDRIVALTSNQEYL
EGFR, sequence (P00533 25-1210): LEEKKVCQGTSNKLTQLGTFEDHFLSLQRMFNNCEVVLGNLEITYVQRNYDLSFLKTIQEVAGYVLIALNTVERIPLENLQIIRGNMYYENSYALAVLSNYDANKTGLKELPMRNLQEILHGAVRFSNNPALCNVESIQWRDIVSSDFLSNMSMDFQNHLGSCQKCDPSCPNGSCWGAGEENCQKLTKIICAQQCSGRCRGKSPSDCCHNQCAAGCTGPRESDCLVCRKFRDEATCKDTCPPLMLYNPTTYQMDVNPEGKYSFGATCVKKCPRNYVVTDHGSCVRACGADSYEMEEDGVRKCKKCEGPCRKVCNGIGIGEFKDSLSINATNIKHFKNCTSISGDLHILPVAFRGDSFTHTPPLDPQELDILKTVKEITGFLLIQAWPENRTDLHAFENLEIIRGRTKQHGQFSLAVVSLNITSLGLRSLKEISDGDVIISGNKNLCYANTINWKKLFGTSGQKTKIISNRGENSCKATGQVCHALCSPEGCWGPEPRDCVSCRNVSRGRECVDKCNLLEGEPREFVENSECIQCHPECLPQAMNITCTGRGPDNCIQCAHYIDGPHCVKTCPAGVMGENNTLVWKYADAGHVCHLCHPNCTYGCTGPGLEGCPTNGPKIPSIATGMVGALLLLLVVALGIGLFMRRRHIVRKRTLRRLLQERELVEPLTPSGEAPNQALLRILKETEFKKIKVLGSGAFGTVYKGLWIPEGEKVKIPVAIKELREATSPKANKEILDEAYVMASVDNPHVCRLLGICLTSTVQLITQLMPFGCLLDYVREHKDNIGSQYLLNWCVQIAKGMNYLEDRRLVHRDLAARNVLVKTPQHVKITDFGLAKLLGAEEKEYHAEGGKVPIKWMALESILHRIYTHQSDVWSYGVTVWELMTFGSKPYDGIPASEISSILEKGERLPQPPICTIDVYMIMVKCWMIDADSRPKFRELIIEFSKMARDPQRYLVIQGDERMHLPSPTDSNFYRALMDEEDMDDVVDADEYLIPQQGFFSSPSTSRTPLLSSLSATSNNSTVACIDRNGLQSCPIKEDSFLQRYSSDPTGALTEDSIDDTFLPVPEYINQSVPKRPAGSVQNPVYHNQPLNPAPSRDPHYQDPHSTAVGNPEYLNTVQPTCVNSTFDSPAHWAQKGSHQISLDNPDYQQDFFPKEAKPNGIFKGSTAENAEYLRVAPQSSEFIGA
pyk2, sequence (Q14289 whole entry, species assumed): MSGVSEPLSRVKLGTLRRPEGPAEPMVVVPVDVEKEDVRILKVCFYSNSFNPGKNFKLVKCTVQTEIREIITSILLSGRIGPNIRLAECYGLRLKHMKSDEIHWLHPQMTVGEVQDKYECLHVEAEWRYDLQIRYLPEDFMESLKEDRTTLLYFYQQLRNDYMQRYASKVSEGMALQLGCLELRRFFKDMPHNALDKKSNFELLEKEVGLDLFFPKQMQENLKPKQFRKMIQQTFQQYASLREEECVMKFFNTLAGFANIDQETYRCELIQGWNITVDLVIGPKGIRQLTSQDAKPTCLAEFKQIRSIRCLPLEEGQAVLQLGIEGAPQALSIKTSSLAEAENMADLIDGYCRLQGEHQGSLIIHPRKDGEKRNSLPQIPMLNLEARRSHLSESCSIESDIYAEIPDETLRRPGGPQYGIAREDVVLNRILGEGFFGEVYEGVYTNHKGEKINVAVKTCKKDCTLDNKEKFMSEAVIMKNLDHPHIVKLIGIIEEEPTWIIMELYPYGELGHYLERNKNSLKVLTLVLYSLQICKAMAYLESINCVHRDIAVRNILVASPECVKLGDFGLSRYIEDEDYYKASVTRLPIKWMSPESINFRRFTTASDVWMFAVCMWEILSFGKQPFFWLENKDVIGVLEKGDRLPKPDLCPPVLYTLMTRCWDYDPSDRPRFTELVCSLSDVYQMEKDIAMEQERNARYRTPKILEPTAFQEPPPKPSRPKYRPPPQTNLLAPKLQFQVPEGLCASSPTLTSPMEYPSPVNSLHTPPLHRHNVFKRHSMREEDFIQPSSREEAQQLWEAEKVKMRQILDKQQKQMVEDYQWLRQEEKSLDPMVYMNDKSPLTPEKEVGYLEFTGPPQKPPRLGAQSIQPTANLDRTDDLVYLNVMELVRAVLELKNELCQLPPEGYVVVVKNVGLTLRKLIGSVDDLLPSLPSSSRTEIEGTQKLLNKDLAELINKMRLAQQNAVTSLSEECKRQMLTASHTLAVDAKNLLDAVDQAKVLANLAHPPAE

## CNS(=O)(=O)c1ccc2c(c1)/C(=C/c1c(C)[nH]c3ccccc13)C(=O)N2 [Compound 181, 3-(2-Methyl-1H-indol-3-ylmethylene)-2-oxo-2,3-dihydro-1H-indole 5-sulfonic acid methylamide]
flkGST
  IC50: 12.5 µM
[1]
  IC50: 5.74 µM
PDGFR-β
  IC50: > 100 µM
pyk2
  IC50: > 100 µM

## CCOC(=O)c1c(C)[nH]c(/C=C2\C(=O)Nc3ccc(S(=O)(=O)NC)cc32)c1CCCN1CCOCC1 [Example 118, 2-Methyl-5-(5-methylsulfamoyl-2-oxo-1,2-dihydroindol-3-ylidenemethyl)-4-(3-morpholin-4-ylpropyl)-1H-pyrrole-3-carboxylic acid ethyl ester]
flkGST
  IC50: 9.29 µM
PDGFR-β
  IC50: > 100 µM
pyk2
  IC50: 4.24 µM

## CCOC(=O)c1c(C)[nH]c(/C=C2\C(=O)Nc3ccc(S(=O)(=O)NC)cc32)c1CCCN1CCN(C)CC1 [Example 119, 2-Methyl-4-[3-(4-methylpiperazin-1-yl)-propyl]-5-(5-methylsulfamoyl-2-oxo-1,2-dihydroindol-3-ylidenemethyl)-1H-pyrrole-3-carboxylic acid ethyl ester]
flkGST
  IC50: 6.33 µM
PDGFR-β
  IC50: > 100 µM
pyk2
  IC50: 2.02 µM

## CCOC(=O)c1c(C)[nH]c(/C=C2\C(=O)Nc3ccc(S(N)(=O)=O)cc32)c1CCCN1CCOCC1 [Example 123, 2-Methyl-4-(3-morpholin-4-ylpropyl)-5-(2-oxo-5-sulfamoyl-1,2-dihydroindol-3-ylidenemethyl)-1H-pyrrole-3-carboxylic acid ethyl ester]
flkGST
  IC50: 16.9 µM
PDGFR-β
  IC50: 15.2 µM
pyk2
  IC50: 4.71 µM

## CCOC(=O)c1c(C)[nH]c(/C=C2\C(=O)Nc3ccc(S(N)(=O)=O)cc32)c1CCCN1CCN(C)CC1 [Example 124, 2-Methyl-4-[3-(4-methylpiperazin-1-yl)-propyl]-5-(2-oxo-5-sulfamoyl-1,2-dihydroindol-3ylidenemethyl)-1H-pyrrole-3-carboxylic acid ethyl ester]
flkGST
  IC50: 13.9 µM
PDGFR-β
  IC50: 33.9 µM
pyk2
  IC50: 4.21 µM

## CCOC(=O)c1c(C)[nH]c(/C=C2\C(=O)Nc3cccc(CCO)c32)c1CCCN1CCOCC1 [Example 131, 5-[4-(2-Hydroxyethyl)-2-oxo-1,2-dihydroindol-3-ylidenemethyl]-2-methyl-4-(3-morpholin-4-ylpropyl)-1H-pyrrole-3-carboxylic acid ethyl ester]
PDGFR-β
  IC50: 23.2 µM
pyk2
  IC50: 2.18 µM

## CCOC(=O)c1c(C)[nH]c(/C=C2\C(=O)Nc3cccc(CCO)c32)c1CCCN1CCCC1 [Example 132, 5-[4-(2-Hydroxyethyl)-2-oxo-1,2-dihydroindol-3-ylidenemethyl]-2-methyl-4-(3-pyrrolidin-1-ylpropyl)-1H-pyrrole-3-carboxylic acid ethyl ester]
PDGFR-β
  IC50: 0.65 µM
pyk2
  IC50: 0.22 µM

## CCOC(=O)c1c(C)[nH]c(/C=C2\C(=O)Nc3cccc(CCO)c32)c1CCCN1CCN(C)CC1 [Example 136, 5-[4-(2-Hydroxyethyl)-2-oxo-1,2-dihydroindol-3-ylidenemethyl]-2-methyl-4-[3-(4methylpiperazin-1-yl)-propyl]-1H-pyrrole-3-carboxylic acid ethyl ester]
flkGST
  IC50: 0.56 µM
PDGFR-β
  IC50: 27 µM
pyk2
  IC50: 2.77 µM

## CCOC(=O)c1c(C)[nH]c(/C=C2\C(=O)Nc3ccc(S(=O)(=O)NC)cc32)c1CCCN(C)C [Example 137]
flkGST
  IC50: 7.54 µM
PDGFR-β
  IC50: 6.17 µM
pyk2
  IC50: > 10 µM
EGFR
  IC50: > 100 µM

## CNS(=O)(=O)c1ccc2c(c1)/C(=C/c1[nH]c(C)c(C(=O)O)c1CCCN(C)C)C(=O)N2 [Example 138, 4-(3-Dimethylaminopropyl)-2-methyl-5-(5-methylsulfamoyl-2-oxo-1,2-dihydroindol-3-ylidenemethyl)-1H-pyrrole-3-carboxylic acid]
flkGST
  IC50: 17.6 µM
PDGFR-β
  IC50: 26.2 µM
pyk2
  IC50: 2.18 µM
EGFR
  IC50: > 100 µM

## CCOC(=O)c1[nH]c(/C=C2\C(=O)Nc3ccc(S(=O)(=O)NC(C)C)cc32)c(CCC(=O)O)c1C [Example 148, 4-(2-Carboxyethyl)-5-(5-isopropylsulfamoyl-2-oxo-1,2-dihydro-indol-3-ylidenemethyl)-3-methyl-1H-pyrrole-2-carboxylic acid ethyl ester]
flkGST
  IC50: 23.9 µM
[1]
  IC50: > 20 µM
PDGFR-β
  IC50: > 100 µM
EGFR
  IC50: > 100 µM

## CNS(=O)(=O)c1ccc2c(c1)/C(=C/c1[nH]c3ccccc3c1CCCN(C)C)C(=O)N2 [Example 149, 3-[3-(3-Dimethylaminopropyl)-1H-indol-2-ylmethylene]-2-oxo-2,3-dihydro-1H-indole-5-sulfonic acid methylamide]
flkGST
  IC50: 2.66 µM
[1]
  IC50: 0.77 µM
PDGFR-β
  IC50: 5.26 µM
pyk2
  IC50: 5.02 µM

## CN(C)CCCc1c(/C=C2\C(=O)Nc3cccc(CCO)c32)[nH]c2ccccc12 [Example 150, 3-[3-(3-Dimethylaminopropyl)-1H-indol-2-ylmethylene]-4-(2-hydroxyethyl)-1,3-dihydroindol-2-one]
flkGST
  IC50: 0.2 µM
PDGFR-β
  IC50: 0.34 µM
pyk2
  IC50: 0.01 µM

## CC(=O)c1ccc2c(c1)C(=Cc1cc3ccccc3[nH]1)C(=O)N2 [Example 158, 5-Acetyl-3-(1H-indol-2-ylmethylene)-1,3-dihydro-indol-2-one]
flkGST
  IC50: 0.26 µM
[1]
  IC50: > 20 µM
PDGFR-β
  IC50: 18 µM
pyk2
  IC50: 12.3 µM

## Cc1c(/C=C2\C(=O)Nc3ccc(S(N)(=O)=O)cc32)[nH]c2ccccc12 [Example 175, 3-(3-Methyl-1H-indol-2-ylmethylene)-2-oxo-2,3-dihydro-1H-indole-5-sulfonic acid amide]
flkGST
  IC50: 1.51 µM
[1]
  IC50: 0.73 µM
PDGFR-β
  IC50: 55.4 µM
pyk2
  IC50: 5.53 µM

## CNS(=O)(=O)c1ccc2c(c1)/C(=C/c1ccc3[nH]ccc3c1)C(=O)N2 [Example 176, 3-(1H-Indol-5-ylmethylene)-2-oxo-2,3-dihydro-1H-indole-5-sulfonic acid methylamide]
flkGST
  IC50: 2.08 µM
[1]
  IC50: 0.75 µM
PDGFR-β
  IC50: 79.2 µM
pyk2
  IC50: 66.1 µM

## CNS(=O)(=O)c1ccc2c(c1)/C(=C/c1c[nH]c3ccccc13)C(=O)N2 [Example 178, 3-(1H-Indol-3-ylmethylene)-2-oxo-2,3-dihydro-1H-indole-5-sulfonic acid methylamide]
flkGST
  IC50: > 20 µM
[1]
  IC50: 3.23 µM
PDGFR-β
  IC50: > 100 µM
pyk2
  IC50: 57.1 µM

## CN(C)S(=O)(=O)c1ccc2c(c1)/C(=C/c1ccc3[nH]ccc3c1)C(=O)N2 [Example 183, 3-(1H-Indol-5-ylmethylene)-2-oxo-2,3-dihydro-1H-indole-5-sulfonic acid dimethylamide]
flkGST
  IC50: 1.55 µM
[1]
  IC50: 7.68 µM
PDGFR-β
  IC50: > 100 µM
pyk2
  IC50: > 100 µM

## Cc1[nH]c2ccccc2c1/C=C1\C(=O)Nc2ccc(S(=O)(=O)N(C)C)cc21 [Example 184, 3-(2-Methyl-1H-indol-3-ylmethylene)-2-oxo-2,3-dihydro-1H-indole-5-sulfonic acid dimethylamide]
flkGST
  IC50: > 20 µM
[1]
  IC50: 8.6 µM
PDGFR-β
  IC50: > 100 µM
pyk2
  IC50: > 100 µM

## NS(=O)(=O)c1ccc2c(c1)/C(=C/c1ccc3[nH]ccc3c1)C(=O)N2 [Example 185, 3-(1H-Indol-5-ylmethylene)-2-oxo-2,3-dihydro-1H-indole-5-sulfonic acid amide]
flkGST
  IC50: 3.39 µM
[1]
  IC50: 9.43 µM
PDGFR-β
  IC50: > 100 µM
pyk2
  IC50: > 100 µM

## CN(C)S(=O)(=O)c1ccc2c(c1)/C(=C/c1cc3ccccc3[nH]1)C(=O)N2 [Example 186, 3-(1H-Indol-2-ylmethylene)-2-oxo-2,3-dihydro-1H-indole-5-sulfonic acid dimethylamide]
flkGST
  IC50: 6.12 µM
[1]
  IC50: 10.4 µM
PDGFR-β
  IC50: > 100 µM
pyk2
  IC50: > 100 µM

## CN(C)S(=O)(=O)c1ccc2c(c1)/C(=C/c1c[nH]c3ccccc13)C(=O)N2 [Example 188, 3-(1H-Indol-3-ylmethylene)-2-oxo-2,3-dihydro-1H-indole-5-sulfonic acid dimethylamide]
flkGST
  IC50: > 20 µM
[1]
  IC50: 17.5 µM
PDGFR-β
  IC50: > 100 µM
pyk2
  IC50: 66.4 µM

## Cc1[nH]c2ccccc2c1/C=C1\C(=O)Nc2ccc(S(N)(=O)=O)cc21 [Example 189, 3-(2-Methyl-1H-indol-3-ylmethylene)-2-oxo-2,3-dihydro-1H-indole-5-sulfonic acid amide]
flkGST
  IC50: > 20 µM
[1]
  IC50: > 20 µM
PDGFR-β
  IC50: > 100 µM
pyk2
  IC50: > 100 µM
